Measurements reported in patent US12241021B2, “Method for fracking of simulation of hydrocarbon bearing formation” (Fluid Energy Group Ltd., priority 2018, dated 2025).

Experiment: Corrosion testing of 316 steel coupons with acidic fluids
Conditions: for corrosion protection when used separately: alkyne alcohol or cinnamaldehyde alone in the inhibitor
Excerpt: Corrosion inhibitor compositions according to preferred embodiments of the present invention were exposed to corrosion testing. Various steel grades (stainless steel and carbon steel) were subjected to acid compositions comprising corrosion inhibitors according to the present invention against known corrosion inhibitors to the listed compositions for various periods of time at varying temperatures. A desirable corrosion inhibition result was one where the lb/ft2 corrosion number is at or below 0.05. More preferably, that number is at or below 0.02.
33% HCl; MEA in a 5.5:1 ratio and 50% HCl; MEA in a 5.5:1 ratio indicate the volume amount of the original concentration of a stock solution containing HCl and Monoethanolamine in a ratio of 5.5:1. The HCl loading of a 33% HCl; MEA in a 5.5:1 ratio is approximately 6.5% HCl. The HCl loading of 50% HCl; MEA in a 5.5:1 ratio is approximately 10% HCl.

O=CC=Cc1ccccc1 [cinnamaldehyde]
corrosion protection when used separately: did not provide corrosion protection sufficient | film forming, protection of stainless steel (at these temperatures (90° C. to 120° C.)): effective film former

C#CCO [propargyl alcohol]
corrosion protection when used separately: did not provide corrosion protection sufficient

CC(C)=CCCC(C)=CC=O (racemic) [Citral, (±)-3,7-Dimethyl-2,6-octadienal]
prevention of pitting (higher temperatures (even 110° C. to 120° C.)): some effectiveness for the prevention of pitting
